Measured values: patent publication US20150274719A1, “AMINO-SUBSTITUTED IMIDAZO[1,2-A]PYRIDINECARBOXAMIDES AND THEIR USE” (BAYER PHARMA AKTIENGESELLSCHAFT, priority 2012, published 2015)
Structures can show the parent of a compound that is named as a salt.

Biological target: T1, recombinant guanylate cyclase reporter cell line (Rattus norvegicus, UniProt P19686+P20595)
T1 construct: expressed in transfected cells; host or cells: recombinant reporter cell line
T1 sequence (P19686 1-690): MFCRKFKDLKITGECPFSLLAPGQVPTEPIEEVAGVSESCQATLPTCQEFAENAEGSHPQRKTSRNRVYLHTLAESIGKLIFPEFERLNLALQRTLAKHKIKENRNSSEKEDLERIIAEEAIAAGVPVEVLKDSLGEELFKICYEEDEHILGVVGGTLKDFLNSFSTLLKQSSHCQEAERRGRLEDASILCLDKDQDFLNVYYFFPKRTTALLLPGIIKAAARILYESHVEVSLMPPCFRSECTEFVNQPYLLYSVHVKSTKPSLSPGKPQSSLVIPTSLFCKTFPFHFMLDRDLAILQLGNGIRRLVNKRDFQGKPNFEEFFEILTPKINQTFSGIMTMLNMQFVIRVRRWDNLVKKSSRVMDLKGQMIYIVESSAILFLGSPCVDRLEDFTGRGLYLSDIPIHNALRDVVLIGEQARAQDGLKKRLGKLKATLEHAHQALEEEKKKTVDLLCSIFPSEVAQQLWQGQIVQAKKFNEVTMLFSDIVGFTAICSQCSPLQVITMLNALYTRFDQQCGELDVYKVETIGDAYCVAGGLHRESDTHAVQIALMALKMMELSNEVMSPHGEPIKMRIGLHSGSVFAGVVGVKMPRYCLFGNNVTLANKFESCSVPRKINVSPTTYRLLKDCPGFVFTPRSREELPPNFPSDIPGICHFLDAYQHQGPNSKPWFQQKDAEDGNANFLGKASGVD
T1 sequence (P20595 1-619): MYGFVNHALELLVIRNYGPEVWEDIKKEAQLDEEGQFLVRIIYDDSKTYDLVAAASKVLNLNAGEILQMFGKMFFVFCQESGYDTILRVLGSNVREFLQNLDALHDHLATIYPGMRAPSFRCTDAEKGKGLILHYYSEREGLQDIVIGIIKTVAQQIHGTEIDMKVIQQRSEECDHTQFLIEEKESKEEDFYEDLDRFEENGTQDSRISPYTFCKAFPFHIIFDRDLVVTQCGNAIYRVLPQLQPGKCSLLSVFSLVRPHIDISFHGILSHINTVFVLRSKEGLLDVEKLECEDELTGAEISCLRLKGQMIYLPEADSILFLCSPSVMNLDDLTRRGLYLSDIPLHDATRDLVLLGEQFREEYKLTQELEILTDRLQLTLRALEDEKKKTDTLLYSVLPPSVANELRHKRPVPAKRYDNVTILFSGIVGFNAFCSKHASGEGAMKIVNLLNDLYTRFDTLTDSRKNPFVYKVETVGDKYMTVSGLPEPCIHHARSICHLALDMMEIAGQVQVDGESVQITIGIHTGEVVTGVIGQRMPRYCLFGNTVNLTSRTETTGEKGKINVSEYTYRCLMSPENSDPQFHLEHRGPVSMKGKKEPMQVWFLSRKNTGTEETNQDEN
Assay: Action on recombinant guanylate cyclase reporter cell line
Format: cell-based
Conditions: in some cases mean values from individual determinations
Protocol: B-2. Action on Recombinant Guanylate Cyclase Reporter Cell Line
The cellular action of the compounds according to the invention is determined on a recombinant guanylate cyclase reporter cell line, as described in F. Wunder et al., Anal. Biochem. 339, 104-112 (2005).
Representative MEC values (MEC=minimal effective concentration) for the compounds according to the invention are shown in the following table (in some cases as mean values obtained from individual determinations): […]

| Structure (SMILES) | MEC (minimal effective concentration) |
| --- | --- |
| Cc1nc2c(OCc3c(F)cccc3F)cccn2c1C(=O)NCC(C)(N)COCc1ccccc1 (racemic) [Example 263, rac-N-[2-amino-3-(benzyloxy)-2-methylpropyl]-8-[(2,6-difluorobenzyl)oxy]-2-methylimidazo[1,2-a]pyridine-3-carboxamide] | 1.00 µM |
| Cc1cc(OCc2c(F)cccc2F)c2nc(C)c(C(=O)NCC(N)c3ccc4ncccc4c3)n2c1 (racemic) [Example 372, rac-N-[2-amino-2-(quinolin-6-yl)ethyl]-8-[(2,6-difluorobenzyl)oxy]-2,6-dimethylimidazo[1,2-a]pyridine-3-carboxamide] | 3.00 µM |
| COCC(C)(N)CNC(=O)c1c(C)nc2c(OCc3c(F)cccc3F)cc(Cl)cn12 (single isomer, unassigned) [Example 196, ent-N-(2-Amino-3-methoxy-2-methylpropyl)-6-chloro-8-[(2,6-difluorobenzyl)oxy]-2-methylimidazo[1,2-a]pyridine-3-carboxamide] | 1.00 µM |
| CCCC(C)(N)CNC(=O)c1c(C)nc2c(OCc3ccccc3)cc(C)cn12 (racemic) [Example 340, rac-N-(2-amino-2-methylpentyl)-8-(benzyloxy)-2,6-dimethylimidazo[1,2-a]pyridine-3-carboxamide] | 1.00 µM |
| CCCC(C)(N)CNC(=O)c1c(C)nc2c(OCc3c(F)ccc(OC)c3F)cc(C)cn12 (stereo not drawn) [Example 364, ent-N-(2-amino-2-methylpentyl)-8-[(2,6-difluoro-3-methoxybenzyl)oxy]-2,6-dimethylimidazo[1,2-a]pyridine-3-carboxamide] | 0.30 µM |
| CCCC(C)(N)CNC(=O)c1c(C)nc2c(OCc3cccc(C)c3F)cc(C)cn12 (racemic) [Example 317, rac-N-(2-amino-2-methylpentyl)-8-[(2-fluoro-3-methylbenzyl)oxy]-2,6-dimethylimidazo[1,2-a]pyridine-3-carboxamide] | 0.30 µM |
| Cc1nc2c(OCc3c(F)cccc3F)cc(Cl)cn2c1C(=O)NCCN1CC(N2CCCC2)C1 [Example 156, 6-chloro-8-[(2,6-difluorobenzyl)oxy]-2-methyl-N-{2-[3-(pyrrolidin-1-yl)azetidin-1-yl]ethyl}-imidazo[1,2-a]pyridine-3-carboxamide] | 3.00 µM |
| Cc1nc2c(OCc3c(F)cccc3F)cccn2c1C(=O)NC(CN)CC(C(F)(F)F)C(F)(F)F (racemic) [Example 5, rac-N-[1-amino-5,5,5-trifluoro-4-(trifluoromethyl)pentan-2-yl]-8-[(2,6-difluorobenzyl)oxy]-2-methylimidazo[1,2-a]-pyridine-3-carboxamide trifluoroacetate] | 1.00 µM |
| Cc1nc2c(OCc3c(F)cccc3F)cccn2c1C(=O)NCC(C)CN (single isomer, unassigned) [Example 95, ent-N-(3-Amino-2-methylpropyl)-8-[(2,6-difluorobenzyl)oxy]-2-methylimidazo[1,2-a]pyridine-3-carboxamide dihydrochloride] | 1.00 µM |
| CCC1CC(NC(=O)c2c(C)nc3c(OCc4c(F)cccc4F)cc(C)cn23)c2nc(C(F)(F)F)ccc2N1 (single isomer, unassigned; ent-8) [Example 325, ent-8-[(2,6-Difluorobenzyl)oxy]-N-[2-ethyl-6-(trifluoromethyl)-1,2,3,4-tetrahydro-1,5-naphthyridin-4-yl]-2,6-dimethylimidazo[1,2-a]pyridine-3-carboxamide] | 0.30 µM |
| CCC(C)(CN)NC(=O)c1c(C)nc2c(OCc3c(F)ccc(F)c3F)cc(C)cn12 (stereo not drawn) [Example 315, ent-N-(1-amino-2-methylbutan-2-yl)-2,6-dimethyl-8-[(2,3,6-trifluorobenzyl)oxy]imidazo[1,2-a]pyridine-3-carboxamide] | 0.30 µM |
| Cc1nc2c(OCc3c(F)cccc3Cl)cccn2c1C(=O)NC(CN)c1ccc(F)c(F)c1 (stereo not drawn) [Example 102, ent-N-[2-amino-1-(3,4-difluorophenyl)ethyl]-8-[(2-chloro-6-fluorobenzyl)oxy]-2-methylimidazo[1,2-a]pyridine-3-carboxamide] | 1.00 µM |
| Cc1nc2c(OCc3c(F)cccc3F)cccn2c1C(=O)NCCN1CCN(C)CC1 [Example 133, 8-[(2,6-difluorobenzyl)oxy]-2-methyl-N-[2-(4-methylpiperazin-1-yl)ethyl]imidazo[1,2-a]-pyridine-3-carboxamide] | 3.00 µM |
| Cc1cc(OCc2c(F)cccc2F)c2nc(C)c(C(=O)NC(CN)c3cccc(C(F)(F)F)c3)n2c1 (racemic) [Example 394, rac-N-{2-amino-1-[3-(trifluoromethyl)phenyl]ethyl}-8-[(2,6-difluorobenzyl)oxy]-2,6-dimethylimidazo[1,2-a]pyridine-3-carboxamide] | 0.30 µM |
| Cc1nc2c(OCc3c(F)cccc3F)cccn2c1C(=O)NCC(N)C(F)(F)F (single isomer, unassigned) [Example 209, ent-N-(2-Amino-3,3,3-trifluoropropyl)-8-[(2,6-difluorobenzyl)oxy]-2-methylimidazo[1,2-a]-pyridine-3-carboxamide] | 0.30 µM |
| Cc1nc2c(OCc3c(F)cccc3F)cccn2c1C(=O)NC(CN)CC(F)(F)F (single isomer, unassigned; enantiomer b) [Example 3, ent-N-(1-Amino-4,4,4-trifluorobutan-2-yl)-8-[(2,6-difluorobenzyl)oxy]-2-methylimidazo[1,2-a]-pyridine-3-carboxamide (Enantiomer B)] | 0.30 µM |
| COCC(C)(N)CNC(=O)c1c(C)nc2c(OCc3c(F)cccc3F)cc(Cl)cn12 (racemic) [Example 159, rac-N-(2-amino-3-methoxy-2-methylpropyl)-6-chloro-8-[(2,6-difluorobenzyl)oxy]-2-methylimidazo[1,2-a]pyridine-3-carboxamide] | 0.30 µM |
| Cc1nc2c(OCc3c(F)cccc3F)cccn2c1C(=O)NCC(N)C(F)(F)F (racemic) [Example 207, rac-N-(2-Amino-3,3,3-trifluoropropyl)-8-[(2,6-difluorobenzyl)oxy]-2-methylimidazo[1,2-a]-pyridine-3-carboxamide] | 1.00 µM |
| Cc1nc2c(OCc3c(F)cccc3F)cccn2c1C(=O)NCC(C)(N)CCOCc1ccccc1 (racemic) [Example 264, rac-N-[2-amino-4-(benzyloxy)-2-methylbutyl]-8-[(2,6-difluorobenzyl)oxy]-2-methylimidazo[1,2-a]pyridine-3-carboxamide] | 0.03 µM |
| Cc1cc(OCc2c(F)cccc2F)c2nc(C)c(C(=O)NC3CCCCNC3)n2c1 (racemic) [Example 316, rac-N-(azepan-3-yl)-8-[(2,6-difluorobenzyl)oxy]-2,6-dimethylimidazo[1,2-a]pyridine-3-carboxamide] | 0.30 µM |
| Cc1cc(OCc2c(F)cccc2F)c2nc(C)c(C(=O)NCC(C)(N)C3CC3)n2c1 (single isomer, unassigned; enantiomer a) [Example 260, ent-N-(2-Amino-2-cyclopropylpropyl)-8-[(2,6-difluorobenzyl)oxy]-2,6-dimethylimidazo[1,2-a]-pyridine-3-carboxamide (Enantiomer A)] | 0.10 µM |
| Cc1nc2c(OCc3c(F)cccc3F)cccn2c1C(=O)NCC(C(C)C)N(C)C (single isomer, unassigned; ent-8) [Example 189, ent-8-[(2,6-Difluorobenzyl)oxy]-N-[2-(dimethylamino)-3-methylbutyl]-2-methylimidazo[1,2-a]-pyridine-3-carboxamide] | 3.00 µM |
